# Laboratory results from patent US20090054515A1, “SKIN-WHITENING COSMETIC” (POLA CHEMICAL INDUSTRIES INC., priority 2006, published 2009).
# How the values were obtained:
# [1] = system: Trp-2; assay: Expression of Trp-2 by Western blotting; assay type: cell-based; conditions: 5 μM, 72-hour culture, human normal melanocytes
# Protocol: (§1) A cell suspension of human normal melanocytes (from Kurabo Industries Ltd.) in a medium for culturing melanocytes (Medium 254, from Kurabo Industries Ltd.) was prepared at 7×10^4 cells/mL and inoculated into φ10-cm culture petri dishes in an amount of 10 mL per dish, and the cells were cultured in a CO2 incubator (37° C., 5% CO2). The next day, the medium was removed, and a medium for culturing melanocytes containing 2 μM or 5 μM Compound (1) or a medium for culturing melanocytes (control) was added in an amount of 10 mL per dish, followed by culture in a CO2 incubator for 72 hours. After 72-hour culture, the medium was removed, and the cells were washed with phosphate buffered saline (PBS) and collected using a cell scraper. A protein extraction solution (0.1% NP-40, 0.01% SDS, 10 mM sodium phosphate buffer (pH 6.8), protease inhibitor) was added to the cell pellets to suspend the cells, and the suspension was shaken at 4° C. for 1 hour. The resultant was centrifuged at 4° C. and 15,000 rpm for 10 minutes, and the supernatant was collected and used as a crude protein extract. […]
# (§2) The membrane was washed with TPBS, and proteins were detected using an ECL Plus western blotting detection system. […]
# [2] = system: human normal melanocytes; assay: Melanin formation inhibition test (14C-thiouracil uptake); assay type: cell-based; conditions: for Melanin level (%): three days culture, % of control
# Protocol: The melanin formation inhibitory action of Compound (1) was evaluated using thiouracil (in this test, thiouracil labeled with ^14C was used), which is specifically taken into cells in a melanin synthesis process. A complete medium for culturing melanocytes (from Kurabo Industries Ltd.) was added to 15 wells of a 24-well plate in an amount of 2 ml per well, and human normal melanocytes (from Kurabo Industries Ltd.) were inoculated into each well at a concentration of 1.5×10^4 cells/cm^2. The cells were cultured at 37° C. for 24 hours under 5% carbon dioxide atmosphere. Thereafter, in all the wells, the medium was exchanged under the following conditions. That is, a fresh complete medium for culturing melanocytes was added to three wells (control), complete mediums for culturing melanocytes containing Compound (1) at concentrations of 1.0×10^−3 mM, 2.0×10^−3 mM, and 4.0×10^−3 mM were added to three wells each (total: nine wells), and a complete medium for culturing melanocytes containing 0.1 mM phenylthiourea, which is known as a tyrosinase inhibitor, was added to other three wells. In addition, to those 15 wells was added ^14C-thiouracil (thiouracil labeled with ^14C) was added at 0.25×10^−6 Ci (curie). The cells were cultured under the same conditions as above for further three days. After completion of the culture, the culture solution was removed from the wells, and the cells were washed with PBS (phosphate buffered saline) and detached with a medium containing trypsin and EDTA from the bottom of each well to produce cell suspensions, followed by centrifugation to collect the cells. The numbers of the cells were counted using a blood cell counting chamber. Thereafter, the ^14C-thiouracil level in the cells collected from each well was determined using a liquid scintillation counter. The percentage of a radiation dose of the cells cultured in each medium containing a test substance based on a radiation dose of the cells collected from the control wells was calculated to determine a melanin level (%). That is, it is considered that the smaller the radiation dose taken in the cells is, the smaller the melanin level is, resulting in a large melanin inhibition titer.
# [3] = system: Trp-1; assay: Expression of Trp-1 by Western blotting; assay type: cell-based; conditions: 5 μM, 72-hour culture, human normal melanocytes
# Protocol: as §1, §2
# [4] = system: tyrosinase; assay: Expression of tyrosinase by Western blotting; assay type: cell-based; conditions: 5 μM, 72-hour culture, human normal melanocytes
# Protocol: as §1, §2
# [5] = molecular target: T1, tyrosinase extracted from normal human melanocytes (Homo sapiens, UniProt P14679); assay: Normal human melanocytes tyrosinase activity inhibition test (dopa-oxidizing activity); assay type: biochemical; conditions: for Dopa-oxidizing activity: control defined as 100%, 10 minutes at 37° C.; for action on the activity of tyrosinase: 1 to 100 μM
# T1 construct: to thereby produce a protein solution, which was used as a crude tyrosinase protein solution; host or cells: human normal melanocytes; extract made with a Subcellular Proteome Extraction Kit (Calbiochem)
# T1 sequence (P14679 19-529): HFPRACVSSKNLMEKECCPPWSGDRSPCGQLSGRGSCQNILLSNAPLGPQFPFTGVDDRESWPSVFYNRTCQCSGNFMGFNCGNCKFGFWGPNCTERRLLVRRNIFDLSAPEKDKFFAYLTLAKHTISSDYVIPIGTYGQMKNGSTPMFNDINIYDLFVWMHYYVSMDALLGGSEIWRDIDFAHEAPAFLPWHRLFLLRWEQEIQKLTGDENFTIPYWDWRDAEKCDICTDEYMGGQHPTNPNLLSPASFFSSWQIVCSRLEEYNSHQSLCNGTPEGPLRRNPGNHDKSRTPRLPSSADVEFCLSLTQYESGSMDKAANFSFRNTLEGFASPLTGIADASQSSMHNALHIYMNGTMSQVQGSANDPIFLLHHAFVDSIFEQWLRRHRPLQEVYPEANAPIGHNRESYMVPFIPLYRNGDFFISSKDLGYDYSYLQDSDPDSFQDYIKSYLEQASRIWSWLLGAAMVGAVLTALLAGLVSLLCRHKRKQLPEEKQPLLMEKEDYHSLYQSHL
# Protocol: Human normal melanocytes (from Kurabo Industries Ltd.), cultured in a medium for culturing melanocytes (Medium 254, from Kurabo Industries Ltd.), were collected using a cell scraper, and extraction was performed for the cells using PreteoExtract™ Subcellular Proteome Extraction Kit (Calbiochem), to thereby produce a protein solution, which was used as a crude tyrosinase protein solution. The dopa-oxidizing activity of the tyrosinase protein solution was measured to evaluate the tyrosinase activity-inhibiting action of Compound (1).
# A 0.1% dopa solution, serving as a substrate, was prepared by dissolving L-β-(3,4-dihydroxyphenyl)alanine (L-DOPA) in 10 mM sodium phosphate buffer (pH 6.8) at a concentration of 0.1 (w/v) %. A crude tyrosinase protein solution, prepared to 1 to 5 μg/80 μL, was fed into a 96-well plate in an amount of 80 μL per well, and solutions of 10 μM, 100 μM, and 1,000 μM Compound (1) in DMSO were separately added to three wells each in an amount of 20 μL per well. Meanwhile, as positive controls, solutions of 10 μM, 100 μM, and 1,000 μM phenylthiourea, known as a tyrosinase activity inhibitor, in DMSO were separately added in the same way as above to different three wells each in an amount of 20 μL per well. In addition, as a control, DMSO was added to another different three wells each in an amount of 20 μL per well. Immediately after 100 μL each of the 0.1% dopa solution was added to the wells each containing the above-described test solution, absorbances at 450 nm were measured using a plate reader and were defined as 0-minute values. The 96-well plate was incubated at 37° C. for 10 minutes in the plate reader, and the absorbances at 450 nm were measured again and defined as 10-minute values. A value calculated by subtracting the 0-minute value from the 10-minute value of each well was defined as a 0→10 minute absorbance change value, and the average of 0→10 minute absorbance change value of control was defined as 100%, followed by measurement of dopa-oxidizing activities in the cases of treatments with various concentrations of test substances.
Structure (SMILES),expression level of Trp-2 [1],melanin formation inhibitory action ([2]; 1.0-4.0 × 10^−3 mM),Melanin level (%) ([2]; 1.0 × 10^−3 mM in medium),Melanin level (%) ([2]; 2.0 × 10^−3 mM in medium),Melanin level (%) ([2]; 4.0 × 10^−3 mM in medium),melanin formation inhibition titer relative to phenylthiourea (positive control) ([2]; Compound (1) 4.0×10^−3 mM versus phenylthiourea 0.1 mM) [times],"inhibition of melanin formation ([2]; cultured cell system of Test Example 1, concentration 25-fold lower than 100 μM) [%]",expression level of Trp-1 [3],expression level of tyrosinase [4],Dopa-oxidizing activity ([5]; 1 μM added substance) [%],Dopa-oxidizing activity ([5]; 10 μM added substance) [%],Dopa-oxidizing activity ([5]; 100 μM added substance) [%],action on the activity of tyrosinase [5],Melanin level (%) ([2]; 0.1 mM in medium)
"CC(C)(C)c1cc(C(=O)c2cccs2)cc(C(C)(C)C)c1O [Compound (1), 2,6-di-tert-butyl-4-(2′-thenoyl)phenol]",did not affect,concentration-dependent melanin formation inhibitory action,48.5 ± 2.3,27.9 ± 0.8,17.0 ± 0.8,≥ 20,≥ 80,did not affect,did not affect,103.55 ± 1.34,102.52 ± 3.68,102.52 ± 2.19,did not inhibit the activity of tyrosinase,–
"NC(=S)Nc1ccccc1 [Phenylthiourea, phenylthiourea, reference compound]",–,–,–,–,–,–,–,–,–,64.07 ± 1.53,22.52 ± 1.09,4.73 ± 2.07,had an action of inhibiting the activity of tyrosinase,20.3 ± 3.8
